Data published in patent US7745450B2, “Pyrazolo[4,3-d]pyrimidines, processes for their preparation and methods for therapy” (Institute of Experimental Botany, priority 2002, dated 2010).

Tests used:
[1] = tested on: Cytokinin-dependent tobacco callus Nicotiana tabacum L. cv. Wisconsins 38; test: Tobacco callus bioassay for cytotoxicity (herbicidal activity); format: cell-based
Procedure, shortened: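 Compounds were prepared in DMSO as a 10^−3 M stock in water. Growth inhibition was scored from fresh callus weight gain after four weeks, with five replicates and the test run at least twice.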

KG1 cells = test: Induction of apoptosis in tumor cells (microscopy, flow cytometry); format: cell-based, human; details: for Speed of apoptosis induction: scored after 6, 12, 24, 48 and 72 hours
Description: Microscopy: Nuclear morphology of the cells was analyzed with the fluorochromes Hoechst 33342 (λEx max 346 nm; λEm max 460 nm) (Sigma) prepared in phosphate-buffered saline (PBS at 0.1 mg/ml, added to the culture medium at a final concentration of 2 μg/ml and ethidium homodimer (EB) (λEx max 540 nm; λEm max 625 nm) (Sigma) prepared in PBS at 100 μg/ml and added to the culture medium at a final concentration of 2 μg/ml (Lizard, 1995). Hundred cells were counted for each sample and percentage of apoptosis was determined.
TdT-mediated dUTP nick end labeling (TUNEL): Control and novel compound-treated cell cultures were washed with PBS and fixed in 1% buffered formaldehyde (pH 7.4) for 15 minutes on ice. After washing in PBS, cells were permeabilized in 70% cold (−20° C.) ethanol and transferred to 4° C. for at least 1 hour. After rehydratation in PBS, cells were labeled with 50 μl/well TUNEL reaction mixture (Boehringer Mannheim). Cells were incubated in this solution at 37° C. for 40 minutes, washed in PBS and resuspended in 500 μl PBS containing 5 μg/ml EB and 0.1% RNAse. After 30 minutes of incubation at 4° C., green (FITC-dUTP) and red (EB-DNA) fluorescence of individual cells was measured on a FACscan flow cytometer (Gorczyca, 1993). Negative control (fixed and permeabilized cells incubated with 50 μl label solution per well without terminal transferase, instead of TUNEL reaction mixture) and positive control (fixed and permeabilized cells incubated with DNase I (100 μg/ml) that induces DNA strand breaks) were included in each experimental set-up.
Viable, apoptotic, necrotic (=primary necrosis, not following apoptosis) and secondarily necrotic cells (=late apoptosis, evolving to necrosis) were scored differentially after 6, 12, 24, 48 and 72 hours of exposure to novel compounds. For the three products a different apoptosis-inducing pattern could be observed. Apoptosis induction occurs fast after incubation with 172 and 201 but slower after incubation with 98.
After 6 and 12 hours of incubation the apoptotic population seems mainly to evolve from S phase. […]

Substance | Inhibition of tobacco callus growth [1] | Speed of apoptosis induction (KG1 cells) | Incubation time after which apoptosis is detected (KG1 cells; flow cytometry, cell line not given)
5-(3-aminopropylamino)-7-benzylamino-3-isopropylpyrazolo[4,3-d]pyrimidine [Compound 17] | inhibitory effect |  | 
5-(3-hydroxypropylamino)-7-[(R,S)-(1-phenyl-2-hydroxyethyl)amino-3-isopropylpyrazolo[4,3-d]pyrimidine [Compound 172] |  | fast | 
5-(3-aminoethylamino)-7-(3,4-dihydroxybenzyl)amino-3-isopropylpyrazolo[4,3-d]pyrimidine [Compound 201] |  | fast | 6 h
